Experimental data: US6689777B2 (Kenneth S. Warren Institute, priority 2001, dated 2004)
Counter-ions that a name gives are not always drawn. Like-named read-outs stand apart in the source and are kept apart here.

How the values were obtained:
synthetic hemozoin = assay: Depolymerization of synthetic hemozoin in vitro; format: biochemical; conditions: 50 mM test compound, acetate buffer pH 5.0, 37° C., 16 hours
Method: This activity is evaluated by incubating a suspension of monomer-free hemozoin at 37° C. with compounds of the present invention for 16 hours. After incubation, hemozoin is separated from any solubilized heme and soluble heme oligomers, the oligomers depolymerized, and the heme present in the supernatants determined.
The synthesis of synthetic hemozoin is carried out as previously described (26). In brief, 60 μmoles of hematin was dissolved in 8 ml of 0.1N NaOH. Following dissolution 49 mmoles of glacial acetic acid was added and the suspension heated at 70° C. overnight. The precipitate was then washed extensively with LPS-free water. In order to remove unreacted heme the precipitate was extracted with 0.1M sodium bicarbonate (pH 9.1) for three hours. The remaining insoluble material was recovered by centrifugation, resuspended in EtOH and transferred to sterile Eppendorf tubes. The material was washed several times in EtOH and finally resuspended in LPS-free double-distilled H2O. The hemozoin preparation was then tested for endotoxin by using the Limulus Amebocyte Lysate test following manufacturer's instructions. Although the preparation of LPS-free hemozoin from native or synthetic sources is not critical for in vitro depolymerization studies, it is critical for studies involving monocytes and animals (see Examples below). Small amounts of LPS can evoke a considerable cytokine response and interfere with interpretation of results. The amount of heme in the final product was determined from a small aliquot using the pyridine-hemochrome method as previously described (26). The preparations are stored at 4° C. until used.
A suspension of monomer-free hemozoin (equivalent to 2 mM free heme) as prepared above was incubated at 37° C. with […] test compound in total volume of 500 μl in acetate buffer (pH: 5.0) in siliconized Eppendorf tubes (Brinkmann Instruments, Westbury, N.Y.) for 16 hours. A control sample containing distilled H2O instead of hemozoin was included. The samples were centrifuged at 14,000 rpm (Eppendorf centrifuge model 5415C, Brinkmann Instruments, Westbury, N.Y.) for 20 min; then 225 μl supernatant was diluted in 175 μl acetate buffer (pH 5.0). Another 225 μl was added to 175 μl 0.5 M NaOH to dissolve possible oligomeric depolymerization products to monomers. Half of the pellet was washed twice for 2.5 hr in 200 μl 2.5% SDS (v/v) in dH2O, the other half was washed twice in 200 μl HCO3^− buffer (pH: 9.1). Both sample supernatants and SDS and HCO3^− buffer supernatants were centrifuged 14,000 rpm for 20 min. and supernatants were added to 10 μl sodium dithionite (200 mg/ml dH2O) to reduce the heme monomers in solution to Fe^2+. All samples were measured in triplicate at 540 nm (Model UV1601 spectrophotometer, Shimradzu Corp, Columbia, Md.). The OD obtained from the blind sample was subtracted from the OD of the hemozoin containing sample.

P. falciparum = P. falciparum growth in culture ([3H]-hypoxanthine incorporation); format: cell-based; conditions: read-out: IC50 vs. P. falc.
Method: To determine the effectiveness of the compounds of the present invention against the erythrocytic stage of the malarial parasite, P. falciparum was grown in human erythrocyte suspensions and maintained at 37° C. in candle jars according to the method of Trager and Jensen (15,16). Parasites were stage-synchronized by incubating mainly ring-stage infected erythrocytes in 5% sorbitol for 10 minutes at room temperature (17). Cultures undergo one growth cycle (2 days) before use. Strains used include the chloroquine sensitive strains D10 and HB3, and the chloroquine resistant isolates Dd2 and FCR.
Parasite growth was determined by measuring incorporation of [^3H]-hypoxanthine into the nucleic acids of the parasite (18). Effects of the compounds of the present invention on parasite growth was determined by measuring the reduction in incorporation of radiolabel as compared to controls. Briefly, assays are performed in 96-well microtiter plates. After 24 h of candle jar incubation at 37° C., [^3H]-hypoxanthine is added to each well. After 18 h the plates are harvested onto glass fiber filter 96 well plates using a cell harvester, dried, and the amount of radioactivity is determined. Drug IC50 values (molar concentration which decreases [^3H]-hypoxanthine incorporation by 50% as compared to drug-free controls) are calculated by extrapolation of the log dose-response curves using curve fitting software (Origin, Microcal Software, Northampton, Mass.).
Parasites were grown in A^+ human erythrocyte suspensions using RPMI-1640 (GIBCO, Gaithersburg, Md.) medium supplemented by 25 mM HEPES (pH 7.35), 0.2% NaHCO3 (23 mM), 0.2% (D)-Glucose and 10% human A^+ plasma and maintained at 37° C. in candle jars according to the method of Trager and Jensen (20,21) Parasites are stage synchronized by incubating mainly ring-stage infected erythrocytes in 5% sorbitol for 10 minutes at room temperature (22). Cultures undergo one growth cycle (2 days) before use. Strains used include the chloroquine sensitive strains D10 and HB3, and the chloroquine resistant isolates Dd2 and FCR.
Parasite growth was determined by measuring incorporation of [^3H]-hypoxanthine into the nucleic acids of the parasite as previously described (23). Effects of the compounds of the present invention on parasite growth was determined by measuring the reduction in incorporation of radiolabel as compared to controls. Briefly, assays were performed in 96-well microtiter plates, each well containing 200 μl of synchronized ring-stage infected erythrocytes in complete media and 50 μl of drug dilution or solvent. The final hematocrit was 1.5% and percent parasitemias range from 2-8%. After 24 h of candle jar incubation at 37° C., 2.5 μCi of [^3H]-hypoxanthine (17 Ci/mmol, Amersham, Arlington Heights, Ill.) in RPMI-1640 media supplemented with 25 mM HEPES (pH 7.35), 0.2% NaHCO3 (23 mM), 0.2% (D)-Glucose is added to each well. After 18 h the plates were harvested onto glass fiber filter 96 well plates using a cell harvester, dried, and 25 μl scintillation acid added per well. The, amount of radioactivity was determined. Drug IC50 values (molar concentration which decreases [^3H]-hypoxanthine incorporation by 50% as compared to drug-free controls) are calculated by extrapolation of the log dose-response curves using curve fitting software (Origin, Microcal Software, Northampton, Mass.). The effects on parasite grown by aromatic guanyllhydrazones, bisguanylhydrazones, naphthothiazolium salts, and other compounds of the instant invention, together with data on hemozoin depolymerization from Example 5, are shown in tables 1 through 4, respectively.

[1] = system: hemozoin ingested by human monocytes; assay: Breakdown of macrophage-ingested hemozoin; format: cell-based; conditions: 25 μM compound, FIG. 1
Method: A further evaluation of compounds was performed for activity against pathophysiological effects of hemozoin on the host, using hemozoin-laden macrophages in culture. Freshly-isolated human monocytes were suspended in medium and hemozoin at a concentration reflective of the amount of hemozoin released into circulation during schizogony. In order to maximize contact between hemozoin and monocytes, the cell preparations were centrifuged for 5 sec at 150×g. Ingestion of hemozoin is essentially complete by two hours. Cells were then washed, plated and kept in a humidified incubator. The test compounds of the present invention were added to the wells at concentrations ranging from 0 to 20 mM. Macrophage viability was determined by direct microscopic examination (gross morphology and detachment from the well), trypan blue exclusion method, and LDH release. […] At various times post-treatment (1 hour; 3 hours), cells were lysed, extensively washed and spun down (2500×g) to pellet any cellular components including hemozoin. The lysates were then treated with alkali to dissolve hemozoin to give monomeric heme (35). Monomeric heme was quantified as described above.
Human monocytes were freshly isolated from a buffy coat from a normal donor using Percoll gradients. […] Cells were solubilized at various time points and hemozoin content determined by luminol-elicited chemiluminescence.

[2] = Table 2, aromatic bisguanylhydrazones, growth in culture, [3H]-hypoxanthine incorporation
[3] = Table 1, aryl monoguanylhydrazones, growth in culture, [3H]-hypoxanthine incorporation

| Compound | % depol. hemoz. (synthetic hemozoin; Table 2) | IC50 (P. falciparum; [2]) | other results |
| --- | --- | --- | --- |
| Cl.Cl.N=C(N)NN=Cc1ccc(O)c(C=NNC(=N)N)c1 [2,2′-[(4-hydroxy-1,3-phenylene)dimethylidyne]bis(hydrazinecarboximidamide) dihydrochloride] | 2.2% | 5500 nM |  |
| Cc1cc(C=NNC(=N)N)c(O)c(C=NNC(=N)N)c1 [2,2′-[(2-hydroxy-5-methyl-1,3-phenylene)dimethylidyne]bis(hydrazinecarboximidamide)] | 2.3% | 200 nM | hemozoin content of monocytes after phagocytosis of hemozoin (luminol-elicited chemiluminescence) [1]: significant reduction of hemozoin |
| CC(=NNC(=N)N)c1cc(O)cc(C(C)=NNC(=N)N)c1.Cl.Cl [2,2′-[(5-hydroxy-1,3-phenylene)diethylidyne]bis(hydrazinecarboximidamide) dihydrochloride] | 0.0% | 1400 nM |  |
| Cc1c(O)c2ccccc2c2c1sc(NCCCN(CCO)CCO)[n+]2C [2-[[3-[bis(2-hydroxyethyl)amino]propyl]imino]-1,2-dihydro-1,4-dimethylnaphtho[1,2-d]thiazol-5-ol dihydrochloride] |  |  | % depol. hemoz. (synthetic hemozoin; Table 3): 2.9%; IC50 (P. falciparum; Plasmodium falciparum): 200 nM |
| CC(CCC1=C(CCC(C)=NNC(=N)N)C(=O)c2ccccc2C1=O)=NNC(=N)N.Cl.Cl [2,2′-[(1,4-dihydro-1,4-dioxo-2,3-naphthalenediyl)bis(1-methyl-3-propanyl-1-ylidene)]bis(hydrazinecarboximidamide)dihydrochloride] |  |  | % depol. hemoz. (synthetic hemozoin; Table 4): 0.3%; IC50 (P. falciparum; Table 4, in culture, [3H]-hypoxanthine incorporation): 800 nM |
| Cl.N=C(N)NN=Cc1c(N)oc2ccc(Cl)cc2c1=O [2-amino-3-[(aminoiminomethyl)hydrazono]methyl]-6-chloro-4H-1-benzopyran-4-one hydrochloride] |  |  | % depol. hemoz. (synthetic hemozoin; Table 1): 0.6%; IC50 (P. falciparum; [3]): 3250 nM |
| CC(=NNC(=N)N)c1ccc(O)c(C(C)=NNC(=N)N)c1.Cl.Cl [2,2′-[(4-hydroxy-1,3-phenylene)diethylidyne]bis(hydrazinecarboximidamide) dihydrochloride] | 0.6% | 2600 nM |  |
| CC(=NNC(=N)N)c1cc(N)cc(C(C)=NNC(=N)N)c1.Cl.Cl [2,2′-[(5-amino-1,3-phenylene)diethylidyne]bis(hydrazinecarboximidamide) dihydrochloride] | 0.3% | 4000 nM |  |
| Cl.Cl.N=C(N)NN=Cc1cccc(C=NNC(=N)N)c1 [2,2′-(1,3-phenylenedimethylidyne)bis(hydrazinecarboximidamide) dihydrochloride] | 0.1% | 1000 nM |  |
| CC(=NNC(=N)N)c1ccc(-c2cc(C)n(C)c(=N)n2)cc1 [2-[[4-(3,4-dimethyl-2(3H)-imino-6-pyrimidinyl)phenyl]ethylidene]hydrazinecarboximidamide hydrochloride hydroiodide] |  |  | IC50 (P. falciparum; [3]): 600 nM |
| Cl.N=C(N)NN=Cc1c(O)ccc2ccccc12 [2-[(2-hydroxy-1-naphthyl)methylidene]hydrazinecarboximidamide monohydrochloride] |  |  | % depol. hemoz. (synthetic hemozoin; Table 1): 4.3%; IC50 (P. falciparum; Plasmodium falciparum): 1800 nM |
| CC(=NNC(=N)N)c1cc(C(C)=NNC(=N)N)c(O)cc1O.Cl.Cl [2,2′-[(4,6-dihydroxy-1,3-phenylene)diethylidyne]bis(hydrazinecarboximidamide) dihydrochloride] | 2.6% | 7000 nM |  |
| CC(=NNC(=N)N)c1cccc(C(C)=NNC(=N)N)c1.Cl.Cl [2,2′-(1,3-phenylenediethylidyne)bis(hydrazinecarboximidamide) dihydrochloride] | 0.4% | 830 nM |  |
| CC(=NNC(=N)N)c1cccc(C(C)=NNC(=N)N)n1.Cl.Cl [2,2′-(2,6-pyridinediyldiethylidyne)bis(hydrazinecarboximidamide) dihydrochloride] | 0.0% | 2000 nM |  |
| COc1c(C=NNC(=N)N)cc(C)cc1C=NNC(=N)N.Cl.Cl [2,2′-[(2-methoxy-5-methyl-1,3-phenylene)dimethylidyne]bis(hydrazinecarboximidamide) dihydrochloride] | 2.0% | 2300 nM |  |
| C/C(=N\NC(=N)N)c1cccc(NC(=O)CCCC(=O)Nc2cccc(/C(C)=N/NC(=N)N)c2)c1 [dihydrochloride] |  |  | % depol. hemoz. (synthetic hemozoin; Table 4): 0%; IC50 (P. falciparum; Plasmodium falciparum): 800 nM |
| CC(=NNC(=N)N)c1cncc(C(C)=NNC(=N)N)c1.Cl.Cl [2,2′-(3,5-pyridinediyldiethylidyne)bis(hydrazinecarboximidamide) dihydrochloride] | 0.3% | 400 nM |  |
